PubChem BioAssay AID2060499 (Molecular Pharmacology Branch, DTP, NCI, 2025)

Tested on: 777334-354-R2-J4-PDC tumor spheroids with HUVEC/MSC, viability
Assay: Anticancer human tumor 777334-354-R2-J4-PDC patient-derived pancreatic adenocarcinoma cell line growth inhibition [GQUAD]
Conditions: for IC50: curve of first compound; for viability, T/C: stronger effect = lower value; active = viability on the fitted dose curve at most 10% of control; inactive = the rest
From the text: DNA G-quadruplex Stabilizer Agents in Combinations in Complex Spheroids
A high-throughput screen of multi-cell type tumor spheroids was designed to identify active combinations of DNA G-quadruplex stabilizer agents and targeted small molecules. Complex spheroids include a stromal component modeled by human endothelial cells (HUVEC) and fibroblasts modeled by human mesenchymal stem cells (MSCs). The concentration ranges selected for each drug and investigational agent were based upon clinically achievable concentrations if the clinical Cmax of the agent was known.
Compounds. The drugs and investigational agents: pidnarulex (CX-5461; NSC782164), APTO-253 (NSC789042), BRACO-19 (NSC847499), peposertib (NSC802822), ceralasertib (NSC780249), elimusertib (NSC800525), camonsertib (NSC841442), AZD-1390 (NSC803789), olaparib (NSC753686), talazoparib (NSC767125), ART-558 (NSC835418), sotorasib (NSC818433), MRTX-1133 (NSC836407), SN-38 (NSC673596), topotecan (NSC609699), etoposide (NSC141540), doxorubicin (NSC123127), gemcitabine (NSC613327), 5-fluorouracil (NSC19893), paclitaxel (NSC125973), vemurafenib (NSC761431), panobinostat (NSC761190), R-306465 (JNJ-16241199; NSC773264), adavosertib (NSC754352), TP-3654 (NSC805149), carboplatin (NSC241240), KSQ-4279 (NSC840948), and staurosporine (NSC755774) were obtained from the National Cancer Institute (NCI) Developmental Therapeutics Program Chemical Repository (34). The FDA-approved anticancer drug set is available from the NCI Developmental Therapeutics Program. […] The stock solutions were prepared in dimethyl sulfoxide (DMSO, Sigma-Aldrich, St. Louis, MO, cat. D2650) at 800-fold the tested concentration and stored at -70 degrees C prior to their use. All drugs and investigational agents were tested over a range starting from a high concentration at or near the clinical Cmax and decreasing in half-log increments. If the clinical Cmax for an agent had not been determined, the highest concentration tested was 10 microM.
2.3 Cell Culture. All cells were maintained in an incubator at 37 degrees C and 5% CO2 with 95% humidity. The PDC lines were cultured according to standard operating procedures established by the NCI PDMR. All PDCs were thawed and cultured in Matrigel-coated flasks prepared with a working solution of 1X Ham's F-12 nutrient mix, without supplementation (Invitrogen, cat. 11765054), 100 U/mL penicillin-streptomycin (Invitrogen, cat. 15140122), and 2.5% Matrigel (Corning Inc., cat. 354248) for the first three passages. The 857933-349-R-J2-PDC line was cultured in 6C/Colon 1B media, which includes advanced DMEM/F-12 (Thermo Fisher Scientific, cat. 12634028), 10 mM HEPES (Thermo Fisher Scientific, cat. 15630080), 1X GlutaMAX supplement (Thermo Fisher Scientific, cat. 35050061), 0.1 mg/mL primocin (InvivoGen, cat. ant-pm-2), 10% defined fetal bovine serum, heat inactivated (HyClone Laboratories Inc., cat. SH30070.03HI), 50% L-WRN conditioned media (ATCC, cat. CRL-3276), 1.25 mM N-Acetyl-L-cysteine (Sigma-Aldrich, cat. A9165), 10 mM nicotinamide (Sigma-Aldrich, cat. N0636), 1X B-27 supplement (Thermo Fisher Scientific, cat. 17504044), 1X N-2 supplement (Thermo Fisher Scientific, cat. 17502048), 10 microM Y-27632 dihydrochloride (Tocris Bioscience, cat. 1254), and 50 ng/mL human EGF recombinant protein (Thermo Fisher Scientific, cat. PHG0311). The 485176-168-R4-J1-PDC line was cultured in Panc media, which includes all 6C/Colon 1B media components plus 100 ng/mL human FGF-10 (Thermo Fisher Scientific, cat. 100-26), 500 nM SB-431542 (Selleckchem, cat. S1067), and gastrin (Tocris, cat. 3006).
[…]

[1] = second compound 0.0316 µM, first compound 0.0316 µM
[2] = second compound 0.0316 µM, first compound 0.1 µM
[3] = second compound 0.0316 µM, first compound 0.316 µM
[4] = second compound 0.0316 µM, first compound 1 µM
[5] = second compound 0.0316 µM, first compound 3.16 µM
[6] = second compound 0.0316 µM, first compound 10 µM
[7] = second compound 0.1 µM, first compound 0.0316 µM
[8] = second compound 0.1 µM, first compound 0.1 µM
[9] = second compound 0.1 µM, first compound 0.316 µM
[10] = second compound 0.1 µM, first compound 1 µM
[11] = second compound 0.1 µM, first compound 3.16 µM
[12] = second compound 0.1 µM, first compound 10 µM
[13] = second compound 0.316 µM, first compound 0.0316 µM
[14] = second compound 0.316 µM, first compound 0.1 µM
[15] = second compound 0.316 µM, first compound 0.316 µM
[16] = second compound 0.316 µM, first compound 1 µM
[17] = second compound 0.316 µM, first compound 3.16 µM
[18] = second compound 0.316 µM, first compound 10 µM
[19] = second compound 1 µM, first compound 0.0316 µM
[20] = second compound 1 µM, first compound 0.1 µM
[21] = second compound 1 µM, first compound 0.316 µM
[22] = second compound 1 µM, first compound 1 µM
[23] = second compound 1 µM, first compound 3.16 µM
[24] = second compound 1 µM, first compound 10 µM
[25] = second compound 3.16 µM, first compound 0.0316 µM
[26] = second compound 3.16 µM, first compound 0.1 µM
[27] = second compound 3.16 µM, first compound 0.316 µM
[28] = second compound 3.16 µM, first compound 1 µM
[29] = second compound 3.16 µM, first compound 3.16 µM
[30] = second compound 3.16 µM, first compound 10 µM
[31] = second compound 10 µM, first compound 0.0316 µM
[32] = second compound 10 µM, first compound 0.1 µM
[33] = second compound 10 µM, first compound 0.316 µM
[34] = second compound 10 µM, first compound 1 µM
[35] = second compound 10 µM, first compound 3.16 µM
[36] = second compound 10 µM, first compound 10 µM
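Also: spheroids exposed to compounds for 7 days before readout.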

CCCS(=O)(=O)Nc1ccc(F)c(C(=O)c2c[nH]c3ncc(-c4ccc(Cl)cc4)cc23)c1F + CN(C)c1ccc(Nc2c3ccc(NC(=O)CCN4CCCC4)cc3nc3cc(NC(=O)CCN4CCCC4)ccc23)cc1
8.42 µM: IC50 (second compound 0.1 µM) | IC50 (second compound 3.16 µM)
8.17 µM: IC50 (second compound 0.0316 µM)
8.4 µM: IC50 (second compound 1 µM)
6.42 µM: IC50 (second compound 10 µM)
8.71 µM: IC50 (second compound 0.316 µM)
inactive: viability, T/C [1] 93% | viability, T/C [2] 97% | viability, T/C [3] 115% | viability, T/C [4] 115% | viability, T/C [5] 116% | viability, T/C [6] 37.6% | viability, T/C [7] 92.5% | viability, T/C [8] 105% | viability, T/C [9] 127% | viability, T/C [10] 128% | viability, T/C [11] 151% | viability, T/C [12] 37.6% | viability, T/C [13] 101% | viability, T/C [14] 98.5% | viability, T/C [15] 130% | viability, T/C [16] 117% | viability, T/C [17] 152% | viability, T/C [18] 40.5% | viability, T/C [19] 92.4% | viability, T/C [20] 98.6% | viability, T/C [21] 107% | viability, T/C [22] 124% | viability, T/C [23] 137% | viability, T/C [24] 39% | viability, T/C [25] 81.6% | viability, T/C [26] 107% | viability, T/C [27] 97.6% | viability, T/C [28] 122% | viability, T/C [29] 131% | viability, T/C [30] 39.8% | viability, T/C [31] 88% | viability, T/C [32] 87% | viability, T/C [33] 87.9% | viability, T/C [34] 93.6% | viability, T/C [35] 81.1% | viability, T/C [36] 30.1%

O=c1[nH]cc(F)c(=O)[nH]1 + CN(C)c1ccc(Nc2c3ccc(NC(=O)CCN4CCCC4)cc3nc3cc(NC(=O)CCN4CCCC4)ccc23)cc1
> 10 µM: IC50 (second compound 0.0316 µM) | IC50 (second compound 0.1 µM) | IC50 (second compound 0.316 µM) | IC50 (second compound 1 µM) | IC50 (second compound 3.16 µM)
inactive: viability, T/C [1] 91.7% | viability, T/C [2] 92% | viability, T/C [3] 99.9% | viability, T/C [4] 84.2% | viability, T/C [5] 66.7% | viability, T/C [6] 55.3% | viability, T/C [7] 96.8% | viability, T/C [8] 96.8% | viability, T/C [9] 92.3% | viability, T/C [10] 90.7% | viability, T/C [11] 80.3% | viability, T/C [12] 60% | viability, T/C [13] 92.6% | viability, T/C [14] 91% | viability, T/C [15] 96.3% | viability, T/C [16] 87.1% | viability, T/C [17] 72.4% | viability, T/C [18] 54.7% | viability, T/C [19] 99.3% | viability, T/C [20] 88.5% | viability, T/C [21] 82.8% | viability, T/C [22] 70.6% | viability, T/C [23] 65.9% | viability, T/C [24] 55% | viability, T/C [25] 93.2% | viability, T/C [26] 81.6% | viability, T/C [27] 79.2% | viability, T/C [28] 77.8% | viability, T/C [29] 71.1% | viability, T/C [30] 54.2% | viability, T/C [31] 76.6% | viability, T/C [32] 79.1% | viability, T/C [33] 76.8% | viability, T/C [34] 71.4% | viability, T/C [35] 60.9% | viability, T/C [36] 47.7%
8.21 µM: IC50 (second compound 10 µM)
